Results reported in patent US12103919B2, “3-(5-oxy)-1-oxoisoindolin-2-yl)piperidine-2,6-dione derivatives and uses thereof” (NOVARTIS AG, priority 2021, dated 2024).

Experiments:
HbF [1] = settings: human primary erythroid cells; cited from earlier work
HbF [2] = settings: cited from earlier work
HBG1/2 = assay: Analysis of HbF gene expression by RNA-seq after CRISPR/Cas9 knockout of WIZ in mPB CD34+ cells; format: cell-based, human; settings: WIZ KO vs scrambled gRNA control, 7 days erythroid differentiation, FIG. 1A
Experimental: Mobilized peripheral blood (mPB) CD34+ cells (AllCells, LLC) were maintained in StemSpan™ serum-free expansion media (SFEM) ([…] Technologies Inc.) supplemented with 50 ng/mL each of rhTPO, rhlL-6, rhFLT3L, rhSCF for 2-3 days prior to shRNA transduction or targeted ribonucleoprotein (RNP) electroporation targeting WIZ. All cytokines were obtained from Peprotech®, Inc. Cell cultures were maintained at 37° C. and 5% CO2 in a humidified tissue culture incubator.
Alt-R CRISPR-Cas9 crRNA and tracrRNA (5′-[…]-3′; SEQ ID NO: 7) were purchased from Integrated DNA Technologies, Inc. Equimolar tracrRNA was annealed with WIZ targeting crRNA (Table 3) in Tris buffer (10 mM, pH 7.5) by heating at 95° C. for 5 minutes using a polymerase chain reaction (PCR) machine (Bio-Rad) followed by cooling to room temperature on the benchtop. Subsequently, a ribonucleoprotein (RNP) complex was generated by mixing annealed tracrRNA:crRNA with 6 ug of Cas9 at 37° C. for 5 minutes in 1× buffer containing HEPES (100 mM), KCl (50 mM), MgCl2 (2.5 mM), glycerol (0.03%), DTT (1 mM) and Tris pH 7.5 (2 mM). […]
Two independent, targeted CRISPR/Cas9 knockout (KO) of WIZ were done using WIZ_6 and WIZ_18 gRNAs or a non-targeting scrambled gRNA negative control in mPB CD34+ HSCs. […] The quality of isolated RNA was determined before sequencing using Agilent RNA 6000 Pico Kit (Agilent, catalogue #5067-1513). […]

Nc1cccc2c1CN(C1CCC(=O)NC1=O)C2=O (stereo not drawn) [lenalidomide]
HbF induction ex vivo (HbF [1]): induce HbF ex vivo
HbF induction in vivo (HbF [2]): induce HbF

Nc1cccc2c1C(=O)N(C1CCC(=O)NC1=O)C2=O (stereo not drawn) [pomalidomide]
HbF induction ex vivo (HbF [1]): induce HbF ex vivo
HbF induction in vivo (HbF [2]): induce HbF

WIZ_6: WIZ targeting crRNA/gRNA, AACATCTTTCGGGCCGTAGG, SEQ ID NO 9 (listed as DNA, chemistry not given here)
HBG1/2 expression upon erythroid differentiation (HBG1/2): upregulation of fetal hemoglobin genes (HBG1/2)

WIZ_18: WIZ targeting crRNA/gRNA, AGTGGGTGCGGCACTTACAG, SEQ ID NO 14 (listed as DNA, chemistry not given here)
HBG1/2 expression upon erythroid differentiation (HBG1/2): upregulation of fetal hemoglobin genes (HBG1/2)
